“And” between values parts separate entries of the source, which are not always exact repeats. Equal entries are not always repeated. Where two headings read alike, the source gives them in different places.
What was measured:
[1] = biological target: CjMQO (malate:quinone oxidoreductase from C. jejuni) (Campylobacter jejuni, UniProt P56954); assay: biochemical; format: biochemical; conditions: 50 mM MOPS pH 7.0, 100 μM UQ1, 1 mM KCN, 0.2 μg/mL CjMQO, 10 mM malate; read-out: IC50 on purified CjMQO
C. jejuni ATCC29428 = assay: C. jejuni growth inhibition, resazurin assay; format: cell-based, Campylobacter jejuni; conditions: for IC50: Mueller Hinton broth, 24 h, microaerophilic, 37°C, resazurin
CjMQO [2] = biological target: T1, CjMQO (Campylobacter jejuni, UniProt P56954); assay: Inhibition mechanism of CjMQO (mixed-model fit, Lineweaver-Burk); format: biochemical; conditions: for K i versus UQ1: malate fixed (10 mM); for Inhibition type versus UQ1 (quinone): NC: noncompetitive; for K i versus malate: UQ1 fixed (50 μM)
Procedure: The inhibition mechanism of the two compounds were investigated as described in a previous study ([Acharjee et al., 2021]). First, the inhibition mechanism versus UQ1 was assayed separately in a reaction mixture containing 50 mM MOPS pH 7.0, 1 mM KCN and 0.2 μg/mL of purified CjMQO containing a range of different ferulenol (0, 0.01, 0.02, and 0.04 μM) and embelin (0, 0.05, 0.1, and 0.15 μM) concentrations. Enzyme activity was measured at varying concentrations of UQ1 (5, 10, 20, 50, and 100 μM) and the reaction was initiated with 10 mM malate. Second, the inhibition mechanism versus malate was determined at 50 μM of UQ1, and the reaction was initiated with varying concentrations of malate (5, 10, 15, and 20 mM) and monitored at 278 nm, in singlets. The steady-state kinetics parameters, in the presence of inhibitors, were used to produce the Lineweaver-Burk plot. Next, the data were fitted to a mixed-type inhibition equation by a nonlinear-regression method using GraphPad Prism software. The intercept and slope from the primary plot (Lineweaver-Burk plot), were replotted as a function of the inhibitor. Finally, additional analysis was performed based on Dixon and Cornish Bowden plots in addition to the plot of Lineweaver-Burk to differentiate the types of inhibition mechanisms.

human fibroblasts = tested on: human fibroblasts; set-up: method as in Feresin et al., 2003; conditions: ref Feresin et al., 2003, read-out: Toxic concentration IC50; cited from earlier work
[3] = biological target: PfMQO (P. falciparum MQO) (Plasmodium falciparum, UniProt C6KT09); set-up: method as in Hartuti et al., 2018; conditions: previously reported; ref Hartuti et al., 2018; cited from earlier work
Sequence of PfMQO (P. falciparum MQO) (C6KT09 entry or part of it): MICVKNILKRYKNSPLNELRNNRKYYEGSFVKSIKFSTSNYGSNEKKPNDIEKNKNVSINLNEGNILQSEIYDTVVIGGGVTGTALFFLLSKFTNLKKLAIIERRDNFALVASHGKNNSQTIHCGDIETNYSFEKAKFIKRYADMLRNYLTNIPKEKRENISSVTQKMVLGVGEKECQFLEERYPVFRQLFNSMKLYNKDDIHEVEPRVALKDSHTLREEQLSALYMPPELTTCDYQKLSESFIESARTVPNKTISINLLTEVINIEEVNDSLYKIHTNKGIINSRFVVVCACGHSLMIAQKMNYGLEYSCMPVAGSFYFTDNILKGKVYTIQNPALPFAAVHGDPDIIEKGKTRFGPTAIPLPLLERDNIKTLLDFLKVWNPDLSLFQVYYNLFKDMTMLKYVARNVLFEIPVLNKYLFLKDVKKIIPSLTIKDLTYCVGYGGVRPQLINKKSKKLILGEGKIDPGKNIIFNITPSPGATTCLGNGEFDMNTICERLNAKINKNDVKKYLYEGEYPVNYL

TgMQO [4] = tested on: TgMQO; set-up: method as in Acharjee et al., 2021; conditions: previously reported; ref Acharjee et al., 2021; cited from earlier work
[5] = tested on: DLD-1 (colon cancer-derived); set-up: method as in Hartuti et al., 2018; conditions: ref Hartuti et al., 2018, read-out: Cytotoxicity IC50; cited from earlier work
[6] = tested on: Panc-1 (pancreatic cancer-derived); set-up: method as in Hartuti et al., 2018; conditions: ref Hartuti et al., 2018, read-out: Cytotoxicity IC50; cited from earlier work
human dermal fibroblast = tested on: human dermal fibroblast; set-up: method as in Hartuti et al., 2018; conditions: ref Hartuti et al., 2018, read-out: Cytotoxicity IC50; cited from earlier work
CjMQO [7] = biological target: T1, CjMQO; assay: Steady-state kinetics of purified CjMQO for substrates; format: biochemical; conditions: for K m for malate: malate varied; for V max / k cat / k cat /K m / K m for ubiquinone: UQ varied, malate fixed 10 mM; for K m for ubiquinone: pH 7.0, 37°C
Procedure: (§1) The steady-state kinetic parameters of CjMQO were determined for malate and ubiquinone (UQ) with different side chain length (UQ0, UQ1, UQ2, UQ4, and dUQ; Supplementary Figure S3). The reaction mixture contained UQ, 1% (v/v) ethanol, 50 mM MOPS, 1 mM KCN and 0.2 μg/mL of purified CjMQO at the optimal pH (pH 7.0) and physiological temperature (37°C). The reduction of quinones was measured through the decrease in the absorbance at 278 nm ( ε278= 15 mM^-1 cm^-1). The Michaelis constant (K m) and maximum velocity (V max) of CjMQO for UQs were determined by varying the concentrations of UQs from 0.1 to 100 μM with the malate concentration fixed at 10 mM.
(§2) Next, K m and V max of CjMQO for malate were determined by varying the concentrations from 0.5 to 50 mM at fixed concentrations of different UQs (100 μM for UQ0 and UQ1 and 10 μM for dUQ and UQ2). The apparent steady-state kinetic parameters were calculated by Michaelis-Menten equation using GraphPad Prism software (ver. 9.3.1, GraphPad Software, Inc., San Diego, California, United States). Following the protocol previously described for TgMQO ([Acharjee et al., 2021]), the reaction mechanism of CjMQO was analysed using malate and UQ1 as substrates. Briefly, CjMQO activity was measured at different UQ1 concentrations (2, 5, 10, 20, and 50 μM) with malate concentrations fixed at 0.5, 2, and 5 mM; the data were then analysed using a double reciprocal plot (Lineweaver-Burk plot) produced by utilizing intercept and slope calculated from steady-state kinetics parameters obtained by fitting the data to Michalis-Menten equation with GraphPad Prism software. The type of reaction mechanism was determined based on the characteristics of the lines plotted in the double reciprocal plot.

TgMQO [8] = tested on: TgMQO; set-up: method as in Acharjee et al., 2021; conditions: ref Acharjee et al., 2021, cited from earlier work
PfMQO = tested on: PfMQO; set-up: method as in Hartuti et al., 2018; conditions: for dUQ; ref Hartuti et al., 2018; cited from earlier work
[9] = substrate: CCCCCCCCCCC1=C(C)C(=O)C(OC)=C(OC)C1=O; assay: Steady-state kinetics of purified CjMQO for substrates; format: biochemical; conditions: other: UQ varied, malate fixed 10 mM; pH 7.0; 37.0 °C
Procedure: as §1, §2

[10] = substrate: COC1=C(OC)C(=O)C(CC=C(C)C)=C(C)C1=O; assay: as above; format: biochemical; conditions: pH 7.0, 37.0 °C
Procedure: as §1, §2

[11] = substrate: O=C(O)CC(O)C(=O)O; assay: as above; format: biochemical; conditions: other: malate varied, pH 7.0, 37.0 °C
Procedure: as §1, §2

[12] = other: UQ varied, malate fixed 10 mM

CCCCCCCCCCCC1=C(O)C(=O)C=C(O)C1=O [Embelin, 2,5-dihydroxy-3-undecyl-p-benzoquinone]
IC50 [1]: 87 nM | IC50 (C. jejuni ATCC29428; Campylobacter jejuni, ATCC29428): 21 µM | Inhibition of growth of C. jejuni ATCC29428 (C. jejuni ATCC29428; at a concentration of 100 μM): completely inhibited | K m (apparent, mixed-model fit) (CjMQO [2]; UQ1 varied, malate fixed): 47 ± 6.3 µM | V max (apparent, mixed-model fit) (CjMQO [2]; UQ1 varied, malate fixed): 164 ± 11 µmol/min/mg | α versus UQ1 (quinone) (CjMQO [2]; UQ1 varied, malate fixed): 0.998 | K i versus UQ1 (CjMQO [2]; UQ1 varied): 0.14 µM | Inhibition type versus UQ1 (quinone) (CjMQO [2]; UQ1 varied, malate fixed): noncompetitive | Inhibition type versus malate (CjMQO [2]; malate varied, UQ1 fixed): Mixed | K m (apparent, mixed-model fit) (CjMQO [2]; malate varied, UQ1 fixed): 2,225 ± 292 μM | V max (apparent, mixed-model fit) (CjMQO [2]; malate varied, UQ1 fixed): 71 ± 3 µmol/min/mg | α versus malate (CjMQO [2]; malate varied, UQ1 fixed): 1.43 | K i versus malate (CjMQO [2]; malate varied): 0.10 µM | Inhibition type versus malate (CjMQO [2]; malate varied, UQ1 fixed, listed as embelin): mixed-type | IC50 (human fibroblasts): 739 µM

CC(C)=CCC/C(C)=C/CC/C(C)=C/Cc1c(O)c2ccccc2oc1=O [Ferulenol, ferulenol]
IC50 [1]: 18 nM | IC50 (C. jejuni ATCC29428): 0.6 µM | K m (apparent, mixed-model fit) (CjMQO [2]; UQ1 varied, malate fixed): 42 ± 5 µM | V max (apparent, mixed-model fit) (CjMQO [2]; UQ1 varied, malate fixed): 133 ± 7 µmol/min/mg | α versus UQ1 (quinone) (CjMQO [2]; UQ1 varied, malate fixed): 1.04 | K i versus UQ1 (CjMQO [2]; UQ1 varied): 0.02 µM | Inhibition type versus UQ1 (quinone) (CjMQO [2]; UQ1 varied, malate fixed): noncompetitive | Inhibition type versus malate (CjMQO [2]; malate varied, UQ1 fixed): Mixed | K m (apparent, mixed-model fit) (CjMQO [2]; malate varied, UQ1 fixed): 1,845 ± 201 μM | V max (apparent, mixed-model fit) (CjMQO [2]; malate varied, UQ1 fixed): 70 ± 2 µmol/min/mg | α versus malate (CjMQO [2]; malate varied, UQ1 fixed): 2.66 | K i versus malate (CjMQO [2]; malate varied): 0.01 µM | Inhibition type versus malate (CjMQO [2]; malate varied, UQ1 fixed, listed as ferulenol): mixed-type | IC50 [3]: 57 nM | IC50 (TgMQO [4]): 822 nM | IC50 [5]: 50.1 µM | IC50 [6]: 50.2 µM | IC50 (human dermal fibroblast): 65.8 µM

O=C(O)CC(O)C(=O)O (stereo not drawn) [Malate, sodium malate]
K m for malate (CjMQO [7]; UQ0 fixed (100 μM)): 298 ± 18 µM | K m for malate (CjMQO [7]; UQ0 fixed (100 μM), listed as malate): 298 µM | K m for malate (CjMQO [7]; UQ1 fixed (100 μM)): 882 ± 49 µM | K m for malate (CjMQO [7]; UQ1 fixed (100 μM), listed as malate): 882 µM | K m for malate (CjMQO [7]; UQ2 fixed (10 μM)): 1,031 ± 93 μM | K m for malate (CjMQO [7]; UQ2 fixed (10 μM), listed as malate): 1,031 μM | K m for malate (CjMQO [7]; dUQ fixed (10 μM)): 1,209 ± 160 μM | K m for malate (CjMQO [7]; dUQ fixed (10 μM), listed as malate): 1,209 μM | K m of TgMQO for malate (TgMQO [8]; in the presence of UQ1): 370 µM | K m of TgMQO for malate (TgMQO [8]; in the presence of UQ2): 637 µM | K m of TgMQO for malate (TgMQO [8]; in the presence of dUQ): 466 µM | K m of PfMQO for malate (PfMQO): 5,990 μM

COC1=C(OC)C(=O)C(C)=CC1=O [UQ0]
V max (CjMQO [7]): 49 µmol/min/mg and 49.0 ± 2.4 µmol/min/mg | k cat (CjMQO [7]): 219 ± 13.1 s⁻¹ | k cat /K m (CjMQO [7]): 1.30 s⁻¹ µM⁻¹ | K m for ubiquinone (CjMQO [7]): 168 µM and 168 ± 12.0 µM | K m of TgMQO for ubiquinone (TgMQO [8]): 225 µM | V max of TgMQO for ubiquinone (TgMQO [8]): 13 µmol/min/mg

COC1=C(OC)C(=O)C(CC=C(C)C)=C(C)C1=O [UQ1]
K m for ubiquinone (CjMQO [7]): 46 µM and 46.0 ± 3.1 µM | K m of TgMQO for ubiquinone (TgMQO [8]): 116 µM | V max of TgMQO for ubiquinone (TgMQO [8]): 44 µmol/min/mg

COC1=C(OC)C(=O)C(C/C=C(\C)CCC=C(C)C)=C(C)C1=O [UQ2]
V max (CjMQO [7]): 108 µmol/min/mg and 108 ± 10 µmol/min/mg | k cat (CjMQO [7]): 485 ± 42.0 s⁻¹ | k cat /K m (CjMQO [7]): 107 s⁻¹ µM⁻¹ | K m for ubiquinone (CjMQO [7]): 4.6 µM and 4.60 ± 1.0 µM

COC1=C(OC)C(=O)C(C/C=C(\C)CC/C=C(\C)CC/C=C(\C)CCC=C(C)C)=C(C)C1=O [UQ4]
V max (CjMQO [7]): 10 µmol/min/mg and 10.0 ± 1.0 µmol/min/mg | k cat (CjMQO [7]): 43.9 ± 11.4 s⁻¹ | k cat /K m (CjMQO [7]): 53 s⁻¹ µM⁻¹ and 53.0 s⁻¹ µM⁻¹ | K m for ubiquinone (CjMQO [7]): 0.8 µM and 0.80 ± 0.2 µM | Concentration above which substrate inhibition was observed (CjMQO [7]; possibly due to low solubility in the assay condition): > 2 µM

CCCCCCCCCCC1=C(C)C(=O)C(OC)=C(OC)C1=O [dUQ, decylubiquinone]
K m for ubiquinone (CjMQO [7]): 8.5 µM and 8.50 ± 2.0 µM | K m of TgMQO for ubiquinone (TgMQO [8]): 17 µM | V max of TgMQO for ubiquinone (TgMQO [8]): 12 µmol/min/mg

B1: CjMQO (Campylobacter jejuni subsp. jejuni NCTC 11168 = ATCC 700819) (protein)
chain: MSQQEFDVLVIGAGISGAALFYELARYTNIKNIALIEKYNTAATLNSKGTSNSQTIHCGDIETNYTLEKARKVKRTADMIVKYGLMQNAQNNFMFSHQKMALAVGDIECDYMKKRYEEFKELYPYIKFFDKAKIKQIEPKVVLGEDCNQDRPENICAMGVESGEVFTTVDFGKMSINLIEQAQKQNKNTFVAFNQEIIHIEKKDDIFILKTSNHQEYHAKSVVVNAGAHSLYLAHKMNLGMDKSCWPVAGSFYLTKQKLLNGKVYMVQNPKLPFAALHGDPDLLADMNTRFGPTALVIPKLERYHGLKSVPEFFEALKLDKTVLKVTFNMFKDATIRNYIFYNYLFELPFVDKSLFVKDAKKIVPSLKASDIYYAKGFGGVRPQVIDKTKGELMLGEASITETPGIIFNMTPSPGATSCLGNAERDAKLVCNYLGMEFNEDKFSSELL
kcat [9]: 343 ± 40.4 s⁻¹ | kcat/Km [9]: 4.02e+07 M⁻¹ s⁻¹ | kcat [10, 12]: 480 ± 18.7 s⁻¹ | kcat/Km [10, 12]: 1.05e+07 M⁻¹ s⁻¹ | Km ([10]; other: malate fixed at 0.5 mM): 16.3 µM | Km ([10]; other: malate fixed at 2 mM): 23.8 µM | Km ([10]; other: malate fixed at 10 mM): 32.6 µM | kcat ([11]; UQ0 fixed (100 μM)): 67 ± 1.1 s⁻¹ | kcat/Km ([11]; UQ0 fixed (100 μM)): 200000 M⁻¹ s⁻¹ | kcat ([11]; UQ1 fixed (100 μM)): 502 ± 55.6 s⁻¹ | kcat/Km ([11]; UQ1 fixed (100 μM)): 600000 M⁻¹ s⁻¹ | kcat ([11]; UQ2 fixed (10 μM)): 389 ± 7.6 s⁻¹ | kcat/Km ([11]; UQ2 fixed (10 μM)): 400000 M⁻¹ s⁻¹ | kcat ([11]; dUQ fixed (10 μM)): 210 ± 19.2 s⁻¹ | kcat/Km ([11]; dUQ fixed (10 μM)): 200000 M⁻¹ s⁻¹
